{"source": "the supplement of paper PMC10307832", "experiment_in_all_cases": "relative viability (nuclei count vs DMSO), 5 days (fraction); higher = more cells survive", "key": {"QS11 + Dasatinib": {"compound": "C1CC2=C(C1)C=C(C=C2)OC3=NC(=C4C(=N3)N(C=N4)CC5=CC=C(C=C5)C6=CC=CC=C6)N[C@@H](CC7=CC=CC=C7)CO [QS11] + Cc1nc(Nc2ncc(C(=O)Nc3c(C)cccc3Cl)s2)cc(N2CCN(CCO)CC2)n1 [Dasatinib] (partner 0.075 µM)", "in_short": "(§1)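 One day after seeding in 1536-well plates, lung cancer cell lines were dosed by pin tool. Dosing was either single-drug or a fixed anchor-drug dose plus five library-drug doses (not always all listed) in √10 steps. After 5 days, nuclei were stained in one fix-and-stain step and counted on 4× images, and relative viability is the nuclei count of treated wells over that of vehicle wells, given as the median of duplicate plates.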"}, "QS11 + Olaparib": {"compound": "C1CC2=C(C1)C=C(C=C2)OC3=NC(=C4C(=N3)N(C=N4)CC5=CC=C(C=C5)C6=CC=CC=C6)N[C@@H](CC7=CC=CC=C7)CO [QS11] + O=C(c1cc(Cc2n[nH]c(=O)c3ccccc23)ccc1F)N1CCN(C(=O)C2CC2)CC1 [Olaparib] (partner 8 µM)", "in_short": "as §1"}, "AZ628 + Olaparib": {"compound": "CC1=C(C=C(C=C1)NC(=O)C2=CC(=CC=C2)C(C)(C)C#N)NC3=CC4=C(C=C3)N=CN(C4=O)C [AZ628] + O=C(c1cc(Cc2n[nH]c(=O)c3ccccc23)ccc1F)N1CCN(C(=O)C2CC2)CC1 [Olaparib] (partner 8 µM)", "in_short": "as §1"}, "QS11 + Crizotinib": {"compound": "C1CC2=C(C1)C=C(C=C2)OC3=NC(=C4C(=N3)N(C=N4)CC5=CC=C(C=C5)C6=CC=CC=C6)N[C@@H](CC7=CC=CC=C7)CO [QS11] + C[C@@H](Oc1cc(-c2cnn(C3CCNCC3)c2)cnc1N)c1c(Cl)ccc(F)c1Cl [Crizotinib] (partner 1 µM)", "in_short": "as §1"}}}
{"cell line": "LCLC-97TM1", "values": [{"measurement": "relative viability", "setting": "QS11 + Dasatinib; first compound 0.08 µM", "value": 0.777}, {"measurement": "relative viability", "setting": "QS11 + Dasatinib; first compound 0.253 µM", "value": 0.932}, {"measurement": "relative viability", "setting": "QS11 + Dasatinib; first compound 2.53 µM", "value": 0.868}, {"measurement": "relative viability", "setting": "QS11 + Dasatinib; first compound 8 µM", "value": 1.01}, {"measurement": "relative viability", "setting": "QS11 + Olaparib; first compound 0.253 µM", "value": 0.428}, {"measurement": "relative viability", "setting": "QS11 + Olaparib; first compound 2.53 µM", "value": 0.495}, {"measurement": "relative viability", "setting": "QS11 + Olaparib; first compound 8 µM", "value": 0.464}, {"measurement": "relative viability", "setting": "AZ628 + Olaparib; first compound 0.08 µM", "value": 0.517}, {"measurement": "relative viability", "setting": "AZ628 + Olaparib; first compound 0.253 µM", "value": 0.371}, {"measurement": "relative viability", "setting": "AZ628 + Olaparib; first compound 0.8 µM", "value": 0.356}, {"measurement": "relative viability", "setting": "AZ628 + Olaparib; first compound 2.53 µM", "value": 0.289}, {"measurement": "relative viability", "setting": "AZ628 + Olaparib; first compound 8 µM", "value": 0.202}, {"measurement": "relative viability", "setting": "QS11 + Crizotinib; first compound 0.08 µM", "value": 0.275}, {"measurement": "relative viability", "setting": "QS11 + Crizotinib; first compound 0.253 µM", "value": 0.351}, {"measurement": "relative viability", "setting": "QS11 + Crizotinib; first compound 0.8 µM", "value": 0.392}, {"measurement": "relative viability", "setting": "QS11 + Crizotinib; first compound 2.53 µM", "value": 0.403}, {"measurement": "relative viability", "setting": "QS11 + Crizotinib; first compound 8 µM", "value": 0.355}]}
